Experimental data reported in the SangsterLogP compilation.

assay: method code SF-AS, from DOI: 10.1135/cccc19851642

First: CCCCCOC(=O)C=Cc1ccc([N+](=O)[O-])o1
Second: CCCCOC(=O)C=Cc1ccc([N+](=O)[O-])o1
The logP of the first is higher: 3.4 for the first, 2.83 for the second.

Compared with `CC(C)(C)CNC(=O)C=Cc1ccc([N+](=O)[O-])o1`, `CC(C)(C)NC(=O)C=Cc1ccc([N+](=O)[O-])o1` is lower in logP: 2.61 for the first, 2.33 for the second.

Going from `COC(=O)C(C#N)=Cc1ccc(Br)o1` to `COC(=O)/C(C#N)=C/c1ccc(C)o1`, the logP falls from 2.41 to 2.09.

Going from `CCCOC(=O)C=Cc1ccc([N+](=O)[O-])o1` to `CCOC(=O)/C=C/c1ccc([N+](=O)[O-])o1`, the logP falls from 2.67 to 2.1.

Compared with `CC(C)(C)OC(=O)C=Cc1ccc([N+](=O)[O-])o1`, `CC(C)OC(=O)/C=C/c1ccc([N+](=O)[O-])o1` is lower in logP: 3.09 for the first, 2.64 for the second.

`COC(=O)C(C#N)=Cc1ccc(I)o1` and `COC(=O)/C(C#N)=C/c1ccc(SC)o1` are within 0.2 log units of each other in logP: 2.75 for the first, 2.61 for the second.

Compared with `CCOC(=O)C(=Cc1ccc([N+](=O)[O-])o1)C(=O)OCC`, `CCC(C)OC(=O)/C=C/c1ccc([N+](=O)[O-])o1` (stereo not given) is higher in logP: 2.5 for the first, 3.09 for the second.

`O=C(O)/C=C/c1ccc([N+](=O)[O-])o1` and `NC(=O)/C=C/c1ccc([N+](=O)[O-])o1` are within 0.2 log units of each other in logP: 0.68 for the first, 0.65 for the second.

Compared with `O=[N+]([O-])c1ccc(C=CBr)o1`, `O=[N+]([O-])/C=C/c1ccc([N+](=O)[O-])o1` is lower in logP: 2.45 for the first, 1.3 for the second.

Compared with `CNC(=O)C=Cc1ccc([N+](=O)[O-])o1`, `CCNC(=O)C=Cc1ccc([N+](=O)[O-])o1` is higher in logP: 0.98 for the first, 1.39 for the second.

`N#CC(C#N)=Cc1ccc(I)o1` and `CSc1ccc(C=C(C#N)C#N)o1` are within 0.2 log units of each other in logP: 2.42 for the first, 2.45 for the second.

Compared with `CCC(C)NC(=O)C=Cc1ccc([N+](=O)[O-])o1` (stereo not given), `CC(C)NC(=O)/C=C/c1ccc([N+](=O)[O-])o1` is lower in logP: 2.28 for the first, 1.8 for the second.

Going from `CCCCNC(=O)C=Cc1ccc([N+](=O)[O-])o1` to `CCCNC(=O)C=Cc1ccc([N+](=O)[O-])o1`, the logP falls from 2.36 to 1.86.

Going from `CC(C)COC(=O)/C=C/c1ccc([N+](=O)[O-])o1` to `CC(C)CNC(=O)C=Cc1ccc([N+](=O)[O-])o1`, the logP falls from 3.14 to 2.23.

Compared with `CCCCCCCCCCCC(C)NC(=O)C=Cc1ccc([N+](=O)[O-])o1` (stereo not given), `CN(C)C(=O)/C=C/c1ccc([N+](=O)[O-])o1` is lower in logP: 3.7 for the first, 0.82 for the second.
